Test results taken from patent US11759462B2, “Spirocyclic compounds as tryptophan hydroxylase inhibitors” (priority 2013, dated 2023).

molecular target: T1, Recombinant human TPH1 (MBP tagged) (Homo sapiens, UniProt P17752); test: TPH1 in vitro inhibition assay (kinetic fluorescence); format: biochemical; settings: TPH1 Range (TPH1 inhibition IC50)
T1 construct: cloning full length human TPH1 cDNA in to a bacterial pMAL-c5E expression vector; made in house; host or cells: E. coli BL21 (DE3)
T1 sequence (P17752 1-444): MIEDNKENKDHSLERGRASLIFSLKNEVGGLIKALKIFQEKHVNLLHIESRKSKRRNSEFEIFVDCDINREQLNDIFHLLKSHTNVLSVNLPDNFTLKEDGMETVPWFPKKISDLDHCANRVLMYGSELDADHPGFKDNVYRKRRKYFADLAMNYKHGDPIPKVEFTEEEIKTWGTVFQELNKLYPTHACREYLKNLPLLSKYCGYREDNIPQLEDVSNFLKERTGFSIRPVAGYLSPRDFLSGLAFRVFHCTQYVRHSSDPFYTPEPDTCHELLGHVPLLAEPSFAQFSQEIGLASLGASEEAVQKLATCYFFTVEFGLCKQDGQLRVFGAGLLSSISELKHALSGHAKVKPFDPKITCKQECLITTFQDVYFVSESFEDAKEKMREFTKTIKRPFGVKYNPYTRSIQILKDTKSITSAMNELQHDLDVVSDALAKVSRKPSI
Method in brief: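 Final mix: 15 nM MBP-TPH1, 30 μM Trp, 36 μM 6-methyltetrahydropterin, 25 μM ferrous ammonium sulfate, 50 mM MES pH 7.1, 1% DMSO, room temperature.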

IC50 [nM] | Structure (SMILES)
50 to 300 | CS(=O)(=O)Nc1cccc(-c2cc(Cl)ccc2[C@@H](Oc2cc(N3CCC4(CC3)CN[C@H](C(=O)O)C4)nc(N)n2)C(F)(F)F)c1 [Example 34n, (S)-8-(2-amino-6-((R)-1-(5-chloro-3′-(methylsulfonamido)-[1,1′-biphenyl]-2-yl)-2,2,2-trifluoroethoxy)pyrimidin-4-yl)-2,8-diazaspiro[4.5]decane-3-carboxylic acid]
50 to 300 | Nc1nc(O[C@H](c2ccc(Cl)cc2-c2cccc(N3CCCC3=O)c2)C(F)(F)F)cc(N2CCC3(CC2)CN[C@H](C(=O)O)C3)n1 [Example 34o, (S)-8-(2-amino-6-((R)-1-(5-chloro-3′-(2-oxopyrrolidin-1-yl)-[1,1′-biphenyl]-2-yl)-2,2,2-trifluoroethoxy)pyrimidin-4-yl)-2,8-diazaspiro[4.5]decane-3-carboxylic acid]
< 50 | Nc1nc(O[C@H](c2ccc(Cl)cc2-c2cccc(C(F)(F)F)c2)C(F)(F)F)cc(N2CCC3(CC2)CN[C@H](C(=O)O)C3)n1 [Example 34q, (S)-8-(2-amino-6-((R)-1-(5-chloro-3′-(trifluoromethyl)-[1,1′-biphenyl]-2-yl)-2,2,2-trifluoroethoxy)pyrimidin-4-yl)-2,8-diazaspiro[4.5]decane-3-carboxylic acid]
< 50 | N#Cc1cccc(-c2cc(Cl)ccc2[C@@H](Oc2cc(N3CCC4(CC3)CN[C@H](C(=O)O)C4)nc(N)n2)C(F)(F)F)c1 [Example 34x, (S)-8-(2-amino-6-((R)-1-(5-chloro-3′-cyano-[1,1′-biphenyl]-2-yl)-2,2,2-trifluoroethoxy)pyrimidin-4-yl)-2,8-diazaspiro[4.5]decane-3-carboxylic acid]
< 50 | COc1cccc(-c2cc(Cl)ccc2[C@@H](Oc2cc(N3CCC4(CC3)CN[C@H](C(=O)O)C4)nc(N)n2)C(F)(F)F)c1 [Example 34y, (S)-8-(2-amino-6-((R)-1-(5-chloro-3′-methoxy-[1,1′-biphenyl]-2-yl)-2,2,2-trifluoroethoxy)pyrimidin-4-yl)-2,8-diazaspiro[4.5]decane-3-carboxylic acid]

Structure (SMILES) | IC50 [nM]
Cc1cccc(-c2cc(Cl)ccc2[C@@H](Oc2cc(N3CCC4(CC3)CN[C@H](C(=O)O)C4)nc(N)n2)C(F)(F)F)n1 [Example 34i, (S)-8-(2-amino-6-((R)-1-(4-chloro-2-(6-methylpyridin-2-yl)phenyl)-2,2,2-trifluoroethoxy)pyrimidin-4-yl)-2,8-diazaspiro[4.5]decane-3-carboxylic acid] | 50 to 300

same assay, conditions: read-out: TPH1 Range (TPH1 inhibition IC50)

IC50 [nM] | Structure (SMILES)
50 to 300 | Nc1nc(O[C@H](c2ccc(Cl)cc2-c2ccc([N+](=O)[O-])cc2)C(F)(F)F)cc(N2CCC3(CC2)CNC(C(=O)O)C3)n1 (stereo partly drawn) [Example 34g, 8-(2-amino-6-((R)-1-(5-chloro-4′-nitro-[1,1′-biphenyl]-2-yl)-2,2,2-trifluoroethoxy)pyrimidin-4-yl)-2,8-diazaspiro[4.5]decane-3-carboxylic acid]
300 to 3000 | Nc1ccc(-c2cc(Cl)ccc2[C@@H](Oc2cc(N3CCC4(CC3)CNC(C(=O)O)C4)nc(N)n2)C(F)(F)F)cc1 (stereo partly drawn) [Example 34h, 8-(2-amino-6-((R)-1-(4′-amino-5-chloro-[1,1′-biphenyl]-2-yl)-2,2,2-trifluoroethoxy)pyrimidin-4-yl)-2,8-diazaspiro[4.5]decane-3-carboxylic acid]
50 to 300 | CCS(=O)(=O)c1cccc(-c2cc(Cl)ccc2[C@@H](Oc2cc(N3CCC4(CC3)CN[C@H](C(=O)O)C4)nc(N)n2)C(F)(F)F)c1 [Example 34j, (S)-8-(2-amino-6-((R)-1-(5-chloro-3′-(ethylsulfonyl)-[1,1′-biphenyl]-2-yl)-2,2,2-trifluoroethoxy)pyrimidin-4-yl)-2,8-diazaspiro[4.5]decane-3-carboxylic acid]
50 to 300 | CCCS(=O)(=O)c1cccc(-c2cc(Cl)ccc2[C@@H](Oc2cc(N3CCC4(CC3)CN[C@H](C(=O)O)C4)nc(N)n2)C(F)(F)F)c1 [Example 34k, (S)-8-(2-amino-6-((R)-1-(5-chloro-3′-(propylsulfonyl)-[1,1′-biphenyl]-2-yl)-2,2,2-trifluoroethoxy)pyrimidin-4-yl)-2,8-diazaspiro[4.5]decane-3-carboxylic acid]
50 to 300 | CCCCS(=O)(=O)c1cccc(-c2cc(Cl)ccc2[C@@H](Oc2cc(N3CCC4(CC3)CN[C@H](C(=O)O)C4)nc(N)n2)C(F)(F)F)c1 [Example 34l, (S)-8-(2-amino-6-((R)-1-(3′-(butylsulfonyl)-5-chloro-[1,1′-biphenyl]-2-yl)-2,2,2-trifluoroethoxy)pyrimidin-4-yl)-2,8-diazaspiro[4.5]decane-3-carboxylic acid]
50 to 300 | Nc1nc(O[C@H](c2ccc(Cl)cc2-c2cccc(CO)c2)C(F)(F)F)cc(N2CCC3(CC2)CN[C@H](C(=O)O)C3)n1 [Example 34m, (S)-8-(2-amino-6-((R)-1-(5-chloro-3′-(hydroxymethyl)-[1,1′-biphenyl]-2-yl)-2,2,2-trifluoroethoxy)pyrimidin-4-yl)-2,8-diazaspiro[4.5]decane-3-carboxylic acid]
50 to 300 | CN1CCN(c2cccc(-c3cc(Cl)ccc3[C@@H](Oc3cc(N4CCC5(CC4)CN[C@H](C(=O)O)C5)nc(N)n3)C(F)(F)F)c2)C1=O [Example 34p, (S)-8-(2-amino-6-((R)-1-(5-chloro-3′-(3-methyl-2-oxoimidazolidin-1-yl)-[1,1′-biphenyl]-2-yl)-2,2,2-trifluoroethoxy)pyrimidin-4-yl)-2,8-diazaspiro[4.5]decane-3-carboxylic acid]
50 to 300 | Cn1ccc(-c2cc(Cl)ccc2[C@@H](Oc2cc(N3CCC4(CC3)CN[C@H](C(=O)O)C4)nc(N)n2)C(F)(F)F)n1 [Example 34t, (S)-8-(2-amino-6-((R)-1-(4-chloro-2-(1-methyl-1H-pyrazol-3-yl)phenyl)-2,2,2-trifluoroethoxy)pyrimidin-4-yl)-2,8-diazaspiro[4.5]decane-3-carboxylic acid]
< 50 | NCc1cccc(-c2cc(Cl)ccc2[C@@H](Oc2cc(N3CCC4(CC3)CN[C@H](C(=O)O)C4)nc(N)n2)C(F)(F)F)c1 [Example 34z, (S)-8-(2-amino-6-((R)-1-(3′-(aminomethyl)-5-chloro-[1,1′-biphenyl]-2-yl)-2,2,2-trifluoroethoxy)pyrimidin-4-yl)-2,8-diazaspiro[4.5]decane-3-carboxylic acid]
50 to 300 | CCOC(=O)c1cccc(-c2cc(Cl)ccc2[C@@H](Oc2cc(N3CCC4(CC3)CN[C@H](C(=O)O)C4)nc(N)n2)C(F)(F)F)c1 [Example 35, (S)-8-(2-amino-6-((R)-1-(5-chloro-3′-(ethoxycarbonyl)-[1,1′-biphenyl]-2-yl)-2,2,2-trifluoroethoxy)pyrimidin-4-yl)-2,8-diazaspiro[4.5]decane-3-carboxylic acid]
3000 to 10000 | COCCOc1cc(Cl)ccc1[C@@H](Oc1cc(N2CCC3(CC2)CN[C@H](C(=O)O)C3)nc(N)n1)C(F)(F)F [Example 36, (S)-8-(2-amino-6-((R)-1-(4-chloro-2-(2-methoxyethoxy)phenyl)-2,2,2-trifluoroethoxy)pyrimidin-4-yl)-2,8-diazaspiro[4.5]decane-3-carboxylic acid]
50 to 300 | Nc1nc(O[C@H](c2ccc(Cl)cc2-n2cnc3ccccc32)C(F)(F)F)cc(N2CCC3(CC2)CN[C@H](C(=O)O)C3)n1 [Example 36b, (S)-8-(6-((R)-1-(2-(1H-benzo[d]imidazol-1-yl)-4-chlorophenyl)-2,2,2-trifluoroethoxy)-2-aminopyrimidin-4-yl)-2,8-diazaspiro[4.5]decane-3-carboxylic acid]
< 50 | Nc1nc(O[C@H](c2ccc(Cl)cc2-n2ncc3ccccc32)C(F)(F)F)cc(N2CCC3(CC2)CN[C@H](C(=O)O)C3)n1 [Example 36c, (S)-8-(2-amino-6-((R)-1-(4-chloro-2-(1H-indazol-1-yl)phenyl)-2,2,2-trifluoroethoxy)pyrimidin-4-yl)-2,8-diazaspiro[4.5]decane-3-carboxylic acid]
3000 to 10000 | Nc1nc(O[C@H](c2ccc(Br)cc2N2CCNCC2)C(F)(F)F)cc(N2CCC3(CC2)CN[C@H](C(=O)O)C3)n1 [Example 36d, (S)-8-(2-amino-6-((R)-1-(4-bromo-2-(piperazin-1-yl)phenyl)-2,2,2-trifluoroethoxy)pyrimidin-4-yl)-2,8-diazaspiro[4.5]decane-3-carboxylic acid]
300 to 3000 | CC(C)Oc1ccc(-c2ccc([C@@H](Oc3cc(N4CCC5(CC4)CN[C@H](C(=O)O)C5)nc(N)n3)C(F)(F)F)c(N3CCNCC3)c2)cc1 [Example 36e, (S)-8-(2-amino-6-((R)-2,2,2-trifluoro-1-(4′-isopropoxy-3-(piperazin-1-yl)-[1,1′-biphenyl]-4-yl)ethoxy)pyrimidin-4-yl)-2,8-diazaspiro[4.5]decane-3-carboxylic acid]
50 to 300 | CC(C)Oc1ccc(-c2ccc([C@@H](Oc3cc(N4CCC5(CC4)CN[C@H](C(=O)O)C5)nc(N)n3)C(F)(F)F)c(N3CCOCC3)c2)cc1 [Example 36f, (S)-8-(2-amino-6-((R)-2,2,2-trifluoro-1-(4′-isopropoxy-3-morpholino-[1,1′-biphenyl]-4-yl)ethoxy)pyrimidin-4-yl)-2,8-diazaspiro[4.5]decane-3-carboxylic acid]
< 50 | Nc1nc(O[C@H](c2ccccc2-c2ccccc2)C(F)(F)F)cc(N2CCC3(CC2)CN[C@H](C(=O)O)C3)n1 [Example 36g, (S)-8-(6-((R)-1-([1,1′-biphenyl]-2-yl)-2,2,2-trifluoroethoxy)-2-aminopyrimidin-4-yl)-2,8-diazaspiro[4.5]decane-3-carboxylic acid]
